In PMC11729428, “New Potent Inhibitor of Transforming Growth Factor-Beta (TGFβ) Signaling that is Efficacious against Microsatellite Stable Colorectal Cancer Metastasis in Combination with Immune Checkpoint Therapy in Mice” (ACS Pharmacology & Translational Science, 2024):

How the values were obtained:
in vitro [1] = conditions: human
Protocol: (§1) 5. Methods for In vitro characterizations of HYL001 […]
(§2) Rapid equilibrium dialysis was performed in triplicates with a rapid equilibrium dialysis (RED) by Sai Life Sciences Lt. (Telangana, India). The RED device contains a dialysis membrane with a molecular weight cut -off […]
(§3) of 8,000 Da, separating two chambers for plasma and buffer, respectively. […]
(§4) were added to the plasma chamber, versus phosphate buffer saline (pH 7.4) to the buffer chamber. Dialysis was performed for 4 h with 100 RPM shaking at 37 °C. […]
(§5) compounds in plasma were either frozen immediately (T0 sample), or incubated at 37 °C for 4 h without dialysis (non-dialysed), respectively.
(§6) Following dialysis, an aliquot was removed from either chamber and diluted with equal volume of opposite matrix to nullify the matrix effect. Similarly, buffer was added to recovery and stability samples. Next, acetonitrile (containing internal standard, glipizide) was added to the mixtures for protein precipitation and vortexed for 5 minutes. The samples were centrifuged at 4000 RPM at 4 °C for 10 min and the supernatant was submitted for liquid chromatography mass spectrometry (LC-MS/MS) analysis. Samples were monitored for parent compound using multiple reaction monitoring (MRM) mode.
(§7) The peak area ratios (PAR, analyte versus internal standard) in plasma vs bufffer were used to determine the fraction of compound bound to plasma proteins. The following equation was used to determine the extent of plasma protein binding: percent free drug = 100% x (PARbuffer / PARplasma); percent bound drug = 100 - % free drug. Recovery was calculated as 100% x (PARplasma + PARbuffer)dialysed / (PARplasma)non-dialysed; stability as 100% x (PAR)non-dialysed / (PARplasma)frozen at T0. […]

in vitro [2] = conditions: rat
Protocol: as §1, §2, §3, §4, §5, §6, §7

in vitro [3] = conditions: mouse
Protocol: as §1, §2, §3, §4, §5, §6, §7

ALK5 = conditions: structure-activity relationship study of Li et al. ref 16; cited from earlier work

Row | recovery at 4 h, 5 µM (in vitro [1]; pH 7.4) [%] | % Compound remaining at 4 hrs (in vitro [1]; plasma, 4 h, 5 µM) [%] | recovery at 4 h, 5 µM (in vitro [2]; pH 7.4) [%] | % Compound remaining at 4 hrs (in vitro [2]; plasma, 4 h, 5 µM) [%] | recovery at 4 h, 5 µM (in vitro [3]; pH 7.4) [%] | % Compound remaining at 4 hrs (in vitro [3]; plasma, 4 h, 5 µM) [%] | Structure (SMILES) | IC50 (ALK5) [nM]
1 | 100 | 84.2 | 98.6 | 104.8 | 99.9 | 106.2 | CC(=O)CC(c1ccccc1)c1c(O)c2ccccc2oc1=O (stereo not shown) [Warfarin, reference compound] | –
2 | – | – | – | – | – | – | Cc1cccc(-c2nn3c(c2-c2ccnc4ccc(Br)cc24)CCC3)n1 [6-Br, 6-Bromo-4-(2-(6-methylpyridin-2-yl)-5,6-dihydro-4H-pyrrolo[1,2-b]pyrazol-3-yl) Quinoline] | 89
